Patent US20240207427A1, “SELECTIVE DRUG RELEASE FROM INTERNALIZED CONJUGATES OF BIOLOGICALLY ACTIVE COMPOUNDS” (priority 2021, published 2024)
Like-named read-outs stand apart in the source and are kept apart here.

Columns and labels:
Type in all cases: cell-based
[1] = tested on: renal carcinoma cells (786-O); assay: In vitro potency (CellTiter-Glo, 96 h), 786-O; conditions: Homo sapiens, 786-0, 96 h, CPT free drugs, renal carcinoma cells 786-O, 96 h, CellTiter-Glo
Description: (§1) In vitro potency was assessed on multiple cancer cell lines. All cell lines were authenticated by STR profiling at IDEXX Bioresearch and cultured for no more than 2 months after resuscitation. Cells cultured in log-phase growth were seeded for 24 hours in 96-well plates containing […] RPMI 1640 supplemented with 20% FBS. Serial dilutions of antibody-drug conjugates in cell culture media were prepared at 4× working concentrations, and 50 μL of each dilution was added to the 96-well plates. Following addition of test articles, cells were incubated with test articles for 4 days at 37 0° C. After 96 hours, growth inhibition was assessed by CellTiterGlo® (Promega, Madison, WI) and luminescence was measured on a plate reader.
(§2) In Table 7, IC50 values for ADCs are given in ng/mL. Cell viability was determined by CellTiter-Glo staining after 96 h exposure to ADC. ND=Not Determined. Ag2 is an antibody targeting a ubiquitous and readily internalizable antigen. The cancer cell lines tested are renal carcinoma cells (786-0), melanoma cells (A2058), pancreatic cancer cells (BxPC3), non-small-cell lung cancer cells (Calu1), anaplastic large cell lymphoma cells (DEL, DELBVR, Karpas299), Hodgkin's lymphoma cells (L540cy), (Ls174T), breast cancer cells (MDA-MB-231), acute myeloid leukemia cells (MOLM-13), and B-lymphocyte cancer cells (SU-DHL4).
as §1, with “FBS.” for “FBS. Serial dilutions of antibody-drug conjugates in cell culture media were prepared at 4× working concentrations, and 50 μL of each dilution was added to the 96-well plates.”
(§3) Cell viability was determined by CellTiter-Glo staining after 96 h exposure to the compound. ND=Not Determined. The cancer cell lines tested are renal carcinoma cells (786-0), melanoma cells (A2058), pancreatic cancer cells (BxPC3), non-small-cell lung cancer cells (Calu1), anaplastic large cell lymphoma cells (DEL, DELBVR, Karpas299), Hodgkin's lymphoma cells (L540cy), (Ls 174T), breast cancer cells (MDA-MB-231), acute myeloid leukemia cells (MOLM-13), B-lymphocyte cancer cells (SU-DHL4), multiple myeloma cells (MM.1R), (U266), and melanoma cells (SK-MEL-5).
as §1, with “37°” for “37 0°”
(§4) In the following Tables IC50 values for ADCs and CPT free drugs are given in ng/mL and nmol/L concentrations. Cell viability was determined by CellTiter-Glo staining after 96 h exposure to ADC or CPT free drug.
(§5) Cell viability was determined by CellTiter-Glo staining after 96 h exposure to ADC. ND=Not Determined.

[2] = tested on: B-lymphocyte cancer cells (SU-DHL4); assay: In vitro potency (CellTiter-Glo, 96 h), SU-DHL-4; conditions: Homo sapiens, SU-DHL-4, 96 h, CPT free drugs, B-lymphocyte cancer cells SU-DHL4, 96 h, CellTiter-Glo
Description: as §1, §2
as §1, with “FBS.” for “FBS. Serial dilutions of antibody-drug conjugates in cell culture media were prepared at 4× working concentrations, and 50 μL of each dilution was added to the 96-well plates.”
as §3
as §1, with “37°” for “37 0°”
as §4, §5

[3] = tested on: Hodgkin's lymphoma cells (L540cy); assay: In vitro potency (CellTiter-Glo, 96 h), L540cy
Description: as §1, §2
as §1, with “FBS.” for “FBS. Serial dilutions of antibody-drug conjugates in cell culture media were prepared at 4× working concentrations, and 50 μL of each dilution was added to the 96-well plates.”
as §3
as §1, with “37°” for “37 0°”
as §4, §5

[4] = tested on: anaplastic large cell lymphoma cells (DELBVR); assay: In vitro potency (CellTiter-Glo, 96 h), DELBVR
Description: as §1, §2
as §1, with “FBS.” for “FBS. Serial dilutions of antibody-drug conjugates in cell culture media were prepared at 4× working concentrations, and 50 μL of each dilution was added to the 96-well plates.”
as §3
as §1, with “37°” for “37 0°”
as §4, §5

[5] = tested on: pancreatic cancer cells (BxPC3); assay: In vitro potency (CellTiter-Glo, 96 h), BxPC3; conditions: Homo sapiens, BXPC-3, 96 h, CPT free drugs, pancreatic cancer cells BxPC3, 96 h, CellTiter-Glo
Description: as §1, §2
as §1, with “FBS.” for “FBS. Serial dilutions of antibody-drug conjugates in cell culture media were prepared at 4× working concentrations, and 50 μL of each dilution was added to the 96-well plates.”
as §3
as §1, with “37°” for “37 0°”
as §4, §5

[6] = tested on: anaplastic large cell lymphoma cells (DEL); assay: In vitro potency (CellTiter-Glo, 96 h), DEL
Description: as §1, §2
as §1, with “FBS.” for “FBS. Serial dilutions of antibody-drug conjugates in cell culture media were prepared at 4× working concentrations, and 50 μL of each dilution was added to the 96-well plates.”
as §3
as §1, with “37°” for “37 0°”
as §4, §5

[7] = tested on: acute myeloid leukemia cells (MOLM-13); assay: In vitro potency (CellTiter-Glo, 96 h), MOLM-13; conditions: Homo sapiens, MOLM-13, 96 h, CPT free drugs, acute myeloid leukemia cells MOLM-13, 96 h, CellTiter-Glo
Description: as §1, §2
as §1, with “FBS.” for “FBS. Serial dilutions of antibody-drug conjugates in cell culture media were prepared at 4× working concentrations, and 50 μL of each dilution was added to the 96-well plates.”
as §3
as §1, with “37°” for “37 0°”
as §4, §5

[8] = tested on: anaplastic large cell lymphoma cells (Karpas299); assay: In vitro potency (CellTiter-Glo, 96 h), Karpas299; conditions: Homo sapiens, KARPAS-299, 96 h, CPT free drugs, anaplastic large cell lymphoma cells Karpas299, 96 h, CellTiter-Glo
Description: as §1, §2
as §1, with “FBS.” for “FBS. Serial dilutions of antibody-drug conjugates in cell culture media were prepared at 4× working concentrations, and 50 μL of each dilution was added to the 96-well plates.”
as §3
as §1, with “37°” for “37 0°”
as §4, §5

[9] = tested on: breast cancer cells (MDA-MB-231); assay: In vitro potency (CellTiter-Glo, 96 h), MDA-MB-231; conditions: Homo sapiens, MDA-MB-231, 96 h, CPT free drugs, breast cancer cells MDA-MB-231, 96 h, CellTiter-Glo
Description: as §1, §2
as §1, with “FBS.” for “FBS. Serial dilutions of antibody-drug conjugates in cell culture media were prepared at 4× working concentrations, and 50 μL of each dilution was added to the 96-well plates.”
as §3
as §1, with “37°” for “37 0°”
as §4, §5

[10] = tested on: Ls174T cells; assay: In vitro potency (CellTiter-Glo, 96 h), Ls174T; conditions: Homo sapiens, 96 h, CPT free drugs, Ls174T cells, 96 h, CellTiter-Glo
Description: as §1, §2
as §1, with “FBS.” for “FBS. Serial dilutions of antibody-drug conjugates in cell culture media were prepared at 4× working concentrations, and 50 μL of each dilution was added to the 96-well plates.”
as §3
as §1, with “37°” for “37 0°”
as §4, §5

[11] = read-out: SU-DHL-4 IC50, Table 29
[12] = read-out: L540cy IC50, Table 29, CPT free drugs, Hodgkin's lymphoma cells L540cy, CellTiter-Glo
[13] = read-out: DELBVR IC50, Table 29, CPT free drugs, anaplastic large cell lymphoma cells DELBVR, CellTiter-Glo
[14] = read-out: DEL IC50, Table 29, CPT free drugs, anaplastic large cell lymphoma cells DEL, CellTiter-Glo
[15] = read-out: MOLM-13 IC50, Table 29
[16] = read-out: Karpas299 IC50, Table 29
[17] = read-out: MDAMB231 IC50, Table 29
[18] = LS174T, read-out: Ls174T IC50, Table 29
[19] = read-out: SU-DHL-4 IC50, Table 28
[20] = read-out: L540cy IC50, Table 28, CPT free drugs, Hodgkin's lymphoma cells L540cy, CellTiter-Glo
[21] = read-out: DELBVR IC50, Table 28, CPT free drugs, anaplastic large cell lymphoma cells DELBVR, CellTiter-Glo
[22] = read-out: DEL IC50, Table 28, CPT free drugs, anaplastic large cell lymphoma cells DEL, CellTiter-Glo
[23] = read-out: MOLM-13 IC50, Table 28
[24] = read-out: Karpas299 IC50, Table 28
[25] = read-out: MDAMB231 IC50, Table 28
[26] = LS174T, read-out: Ls174T IC50, Table 28

| Compound | IC50 ([1]; read-out: 786-O IC50, Table 29) | IC50 [2, 11] | IC50 [3, 12] | IC50 [4, 13] | IC50 ([5]; read-out: BxPC3 IC50, Table 29) | IC50 [6, 14] | IC50 [7, 15] | IC50 [8, 16] | IC50 [9, 17] | IC50 [10, 18] | IC50 ([1]; read-out: 786-O IC50, Table 28) | IC50 [2, 19] | IC50 [3, 20] | IC50 [4, 21] | IC50 ([5]; read-out: BxPC3 IC50, Table 28) | IC50 [6, 22] | IC50 [7, 23] | IC50 [8, 24] | IC50 [9, 25] | IC50 [10, 26] | also measured |
| --- | --- | --- | --- | --- | --- | --- | --- | --- | --- | --- | --- | --- | --- | --- | --- | --- | --- | --- | --- | --- | --- |
| CC[C@@]1(O)C(=O)OCc2c1cc1n(c2=O)Cc2c-1nc1cc3c(cc1c2CNC[C@@H](O)CN1CCCCC1)OCO3 [Compound 7z] | 123 nM | 39 nM | 48 nM | 16 nM | 127 nM | 17 nM | 143 nM | 150 nM | 306 nM | 79 nM | – | – | – | – | – | – | – | – | – | – | – |
| C=C(C)c1c(C)c(F)cc2nc3c(c(CN)c12)Cn1c-3cc2c(c1=O)COC(=O)[C@]2(O)CC [Compound 2al] | – | – | – | – | – | – | – | – | – | – | 4 nM | 1 nM | 2 nM | 1 nM | 7 nM | 1 nM | 2 nM | 4 nM | 9 nM | 11 nM | – |
| CC[C@@]1(O)C(=O)OCc2c1cc1n(c2=O)Cc2c-1nc1cc3c(cc1c2CN)COC3 [Compound 2ak] | – | – | – | – | – | – | – | – | – | – | – | – | – | – | – | – | 129 nM | – | – | – | IC50 ([1]; Table 28, read-out: 786-O IC50): 57 nM; IC50 ([2]; Table 28, read-out: SU-DHL-4 IC50): 11 nM; IC50 ([3]; Table 28, CPT free drugs, Hodgkin's lymphoma cells L540cy, CellTiter-Glo, read-out: L540cy IC50): 22 nM; IC50 ([4]; Table 28, CPT free drugs, anaplastic large cell lymphoma cells DELBVR, CellTiter-Glo, read-out: DELBVR IC50): 6 nM; IC50 ([5]; Table 28, read-out: BxPC3 IC50): 88 nM; IC50 ([6]; Table 28, CPT free drugs, anaplastic large cell lymphoma cells DEL, CellTiter-Glo, read-out: DEL IC50): 6 nM; IC50 ([8]; Table 28, read-out: Karpas299 IC50): 40 nM; IC50 ([9]; Table 28, read-out: MDAMB231 IC50): 147 nM; IC50 ([10]; Table 28, read-out: Ls174T IC50): 50 nM |
| CC[C@@]1(O)C(=O)OCc2c1cc1n(c2=O)Cc2c-1nc1cc(F)c(C)c(Cl)c1c2CNC(=O)CN [Compound 13a] | – | – | – | – | – | – | – | – | – | – | 6 nM | 1 nM | 1 nM | 1 nM | 5 nM | 0.3 nM | 2 nM | 1 nM | 5 nM | 44 nM | – |
| CC[C@@]1(O)C(=O)OCc2c1cc1n(c2=O)Cc2c-1nc1cc3c(cc1c2CNC[C@H](O)CN1CCCCC1)OCO3 [Compound 7aa] | 131 nM | 19 nM | 51 nM | 19 nM | 66 nM | 17 nM | 69 nM | 63 nM | 228 nM | 188 nM | – | – | – | – | – | – | – | – | – | – | – |
